We go through 18 compounds from patent publication US20120214847A1, “2-[1-PHENYL-5-HYDROXY-4a-SUBSTITUTED-HEXAHYDROCYCLOPENTA[F]INDAZOL-5-YL]ETHYL PHENYL DERIVATIVES AS GLUCOCORTICOID RECEPTOR LIGANDS” (Merck Sharp & Dohme Corp., priority 2009, published 2012).

Usually Ki stands for a measure of affinity in units of concentration, obtained from inhibition or displacement. Read a low Ki as higher affinity.

For the assay, the target named is T1, glucocorticoid receptor (Homo sapiens, UniProt P04150).
T1 construct: endogenous in cells; host or cells: HeLa (ATCC) cell lysate supernatant
T1 sequence (P04150 1-777): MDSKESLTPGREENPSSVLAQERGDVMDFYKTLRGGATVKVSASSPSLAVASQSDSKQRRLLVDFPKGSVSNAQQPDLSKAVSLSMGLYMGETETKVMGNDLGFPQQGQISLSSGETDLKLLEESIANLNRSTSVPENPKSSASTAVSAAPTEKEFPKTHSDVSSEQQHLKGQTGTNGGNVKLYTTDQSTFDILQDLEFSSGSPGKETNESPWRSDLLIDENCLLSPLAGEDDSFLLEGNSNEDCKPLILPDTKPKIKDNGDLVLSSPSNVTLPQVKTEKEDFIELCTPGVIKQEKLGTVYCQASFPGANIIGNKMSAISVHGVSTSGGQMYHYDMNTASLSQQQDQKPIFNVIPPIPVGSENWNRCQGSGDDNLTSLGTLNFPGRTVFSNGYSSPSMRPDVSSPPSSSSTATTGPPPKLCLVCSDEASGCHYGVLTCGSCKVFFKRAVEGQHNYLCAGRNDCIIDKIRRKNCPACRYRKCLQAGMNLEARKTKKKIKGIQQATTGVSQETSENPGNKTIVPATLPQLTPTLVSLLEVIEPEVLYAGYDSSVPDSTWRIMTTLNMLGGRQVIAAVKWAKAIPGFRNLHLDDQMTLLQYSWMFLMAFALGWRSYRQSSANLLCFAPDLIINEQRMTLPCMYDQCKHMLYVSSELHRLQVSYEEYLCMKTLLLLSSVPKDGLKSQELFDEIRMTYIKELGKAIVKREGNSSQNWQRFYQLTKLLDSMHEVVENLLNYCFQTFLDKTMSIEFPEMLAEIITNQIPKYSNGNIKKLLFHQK
The assay can be described thus: Ligand binding assay (GRBind), 3H-dexamethasone displacement in HeLa cell lysate. To be noted: 3H-DEX tracer. The procedure: Binding Buffer: TEGM (10 mM Tris-HCl, 1 mM EDTA, 10% glycerol, 1 mM betamecaptoethanol, 10 mM Sodium Molybdate, pH 7.2)
50% HAP Slurry: Calbiochem Hydroxylapatite, Fast Flow, in 10 mM Tris, pH 8.0 and 1 mM EDTA.
Wash Buffer: 40 mM Tris, pH7.5, 100 mM KCl, 1 mM EDTA and 1 mM EGTA. 95% EtOH Dexmethasone-methyl-3H, (DEXA*); (Amersham cat#TRK645) Dexamethasone(DEX) (Sigma, cat#01756):
Hydroxylapatite Fast Flow; Calbiochem Cat#391947
25 Molybdate=Molybdic Acid (Sigma, M1651)
5 Cells (Hall R. E., et al., European Journal of Cancer, 30A: 484-490 (1994)) HeLa (ATCC) cultured in RPMI 1640 (Gibed 11835-055) containing 20 mM Hepes, 4 mM L-glu, 10 ug/ml of human insulin (Sigma, 1-0259), 10% FBS and 20 uglml of Gentamicin (Gibco#15710072) are rinsed twice in PBS. Phenol red-free Trypsin-EDTA is diluted in the same PBS 1:10. The cell layers are rinsed with IX Trypsin, extra Trypsin is poured out, and the cell layers are incubated at 37° C. for 2 min. The flask is tapped and checked for signs of cell detachment. Once the cells begin to slide off the flask, the complete media is added. The cells are counted at this point, then diluted to the appropriate concentration and split into flasks or dishes for further culturing (Usually 1:3 to 1:6 dilution).
Preparation of HeLa Cell Lysate
When the cells are 70 to 85% confluent, they are detached as described above, and collected by centrifuging at 1000 g for 10 min at 4° C. The cell pellet is washed twice with TEGM (10 mM Tris-HCl, 1 mM EDTA, 10% glycerol, 1 mM beta-mercaptoethanol, 10 mM Sodium Molybdate, pH 7.2). After the final wash, the cells are resuspended in TEGM at a concentration of 10^7 cells/mL. The cell suspension is snap frozen in liquid nitrogen or ethanol/dry ice bath and transferred to −80° C. freezer on dry ice. Before setting up the binding assay, the frozen samples are left on ice-water to just thaw. Then the samples are centrifuged at 12,500 g to 20,000 g for 30 min at 4° C. The supernatant is used to set-up assay right away. If using 50 μL of supernatant, the test compound can be prepared in 50 μL of the TEGM buffer.
Procedure for Multiple Compound Screening
1×TEGM buffer is prepared, and the isotope-containing assay mixture is prepared in the following order: EtOH (2% final concentration in reaction), 3H-DEX (Amersham Biosciences) and 1×TEGM. [e.g. For 100 samples, 200 JlL (100×2) of EtOH+4.25 JlL of 1:10 ^3H-Dex stock+2300 μL (100×23) 1×TEGM]. The compound is serially diluted, e.g., if starting final conc. is 1 μM, and the compound is in 25 μL of solution, for duplicate samples, 75 μL of 4×1 μM solution is made and 3 μL of 100). 1M is added to 72 μL of buffer, and 1:5 serial dilution.
25 μL of ^3H-DEX (6 nM) trace and 25 μL, compound solution are first mixed together, followed by addition of 50 μL receptor solution. The reaction is gently mixed, spun briefly at about 200 rpm and incubated at 4° C. overnight. 100 μL of 50% HAP slurry is prepared and added to the incubated reaction which is then vortexed and incubated on ice for 5 to 10 min. The reaction mixture is vortexed twice more to resuspend HAP while incubating reaction. The samples in 96-well format are then washed in wash buffer using the FilterMate™ Universal Harvester plate washer (Packard). The washing process transfers HAP pellet containing ligand-bound expressed receptor to Unifilter-96 GFIB filter plate (Packard). The HAP pellet on the filter plate is incubated with […] of MICROSCINT (Packard) scintillant for 30 min before being counted on the TopCount microscintillation counter (Packard). IC50s are calculated using DEX as a reference.

Consider `O=C(NC1(CO)CC1)c1ccccc1CC[C@]1(O)CCC2=Cc3c(cnn3-c3ccc(F)cc3)C[C@@]21C1CC1` [Example 46, 2-{2-[(4aR,5R)-4a-Cyclopropyl-1-(4-fluorophenyl)-5-hydroxy-1,4,4a,5,6,7-hexahydrocyclopenta[f]indazol-5-yl]ethyl}-N-[1-(hydroxymethyl)cyclopropyl]benzamide], for which the affinity, expressed as Ki, was 1.99 nM.

In turn, `NC(=O)c1ccccc1CC[C@]1(O)CCC2=Cc3c(cnn3-c3cccc(F)c3)C[C@@]21C1CC1` [Example 7, 2-{2-[(4aR,5R)-4a-Cyclopropyl-1-(3-fluorophenyl)-5-hydroxy-1,4,4a,5,6,7-hexahydrocyclopenta[f]indazol-5-yl]ethyl}benzamide] had a Ki of 3.22 nM.

Consider `OC(C[C@]1(O)CCC2=Cc3c(cnn3-c3ccc(F)cc3)C[C@@]21C1CC1)c1ccccn1` (stereo partly drawn) [Example 78, (4aR,5R)-4a-Cyclopropyl-1-(4-fluorophenyl)-5-[2-hydroxy-2-(pyridin-2-yl)ethyl]-1,4,4a,5,6,7-hexahydrocyclopenta[f]indazol-5-ol], for which the Ki turned out to be 2.96 nM.

On to `CC[C@]12Cc3cnn(-c4ccc(F)cc4)c3C=C1CC[C@@]2(O)CCc1ncc(F)cc1C(N)=O` [Example 53, 2-{2-[(4aS,5R)-4a-Ethyl-1-(4-fluorophenyl)-5-hydroxy-1,4,4a,5,6,7-hexahydrocyclopenta[f]indazol-5-yl]ethyl}-5-fluoropyridine-3-carboxamide], for which the affinity corresponds to a Ki of 5.97 nM.

Compound `CC[C@]12Cc3cnn(-c4ccc(F)cc4)c3C=C1CC[C@@]2(O)CC(O)c1cc(C#N)ccn1` (stereo partly drawn) [Example 72, 2-{2-[(4aS,5R)-4a-Ethyl-1-(4-fluorophenyl)-5-hydroxy-1,4,4a,5,6,7-hexahydrocyclopenta[f]indazol-5-yl]-1-hydroxyethyl}pyridine-4-carbonitrile] came in with a Ki of 6.25 nM.

For the compound `CC[C@]12Cc3cnn(-c4ccc(F)cc4)c3C=C1CC[C@@]2(O)CCc1cc(F)ccn1` [Example 18, (4aS,5R)-4a-Ethyl-1-(4-fluorophenyl)-5-[2-(4-fluoropyridin-2-yl)ethyl]-1,4,4a,5,6,7-hexahydrocyclopenta[f]indazol-5-ol], affinity was put at a Ki of 1.73 nM.

`NC(=O)C(O)c1ccccc1CC[C@]1(O)CCC2=Cc3c(cnn3-c3ccc(F)cc3)C[C@@]21C1CC1` (single isomer, unassigned) [Example 3b] displayed an inhibitory constant (Ki) of 1.79 nM.

Turning to `CC[C@]12Cc3cnn(-c4ccc(F)cc4)c3C=C1CC[C@@]2(O)CC1OC(=O)c2ccccc21` (stereo partly drawn) [Example 71, 3-{[(4aS,5R)-4a-Ethyl-1-(4-fluorophenyl)-5-hydroxy-1,4,4a,5,6,7-hexahydrocyclopenta[f]indazol-5-yl]methyl}-2-benzofuran-1(3H)-one], the Ki was 2.97 nM.

For `CC[C@]12Cc3cnn(-c4ccccc4)c3C=C1CC[C@@]2(O)CC(O)c1cc(C#N)ccn1` (stereo partly drawn) [Example 75, 2-{2-[(4aS,5R)-4a-Ethyl-5-hydroxy-1-phenyl-1,4,4a,5,6,7-hexahydrocyclopenta[f]indazol-5-yl]-1-hydroxyethyl}pyridine-4-carbonitrile], the affinity corresponds to a Ki of 2.97 nM.

Take `N#Cc1cccnc1CC[C@]1(O)CCC2=Cc3c(cnn3-c3ccc(F)cc3)C[C@@]21C1CC1` [Example 31, 2-{2-[(4aR,5R)-4a-Cyclopropyl-1-(4-fluorophenyl)-5-hydroxy-1,4,4a,5,6,7-hexahydrocyclopenta[f]indazol-5-yl]ethyl}pyridine-3-carbonitrile]: affinity was put at a Ki of 1.58 nM.

The compound `O=C(NCCO)c1ccccc1CC[C@]1(O)CCC2=Cc3c(cnn3-c3ccc(F)cc3)C[C@@]21C1CC1` [Example 50, 2-{2-[(4aR,5R)-4a-Cyclopropyl-1-(4-fluorophenyl)-5-hydroxy-1,4,4a,5,6,7-hexahydrocyclopenta[f]indazol-5-yl]ethyl}-N-(2-hydroxyethyl)benzamide] showed a Ki of 2.09 nM.

The compound `CC(C)(CO)NC(=O)c1cc(F)cnc1CC[C@]1(O)CCC2=Cc3c(cnn3-c3ccc(F)cc3)C[C@@]21C1CC1` [Example 48, 2-{2-[(4aR,5R)-4a-Cyclopropyl-1-(4-fluorophenyl)-5-hydroxy-1,4,4a,5,6,7-hexahydrocyclopenta[f]indazol-5-yl]ethyl}-5-fluoro-N-(1-hydroxy-2-methylpropan-2-yl)pyridine-3-carboxamide] gave a Ki of 3.55 nM.

Regarding `CC[C@]12Cc3cnn(-c4ccc(F)cc4)c3C=C1CC[C@@]2(O)CCc1cccc(F)c1CC(N)=O` [Example 60, 2-(2-{2-[(4aS,5R)-4a-Ethyl-1-(4-fluorophenyl)-5-hydroxy-1,4,4a,5,6,7-hexahydrocyclopenta[f]indazol-5-yl]ethyl}-6-fluorophenyl)acetamide], the affinity, expressed as Ki, was 2.33 nM.

In turn, `NC(=O)CNC(=O)c1cc(F)cnc1CC[C@]1(O)CCC2=Cc3c(cnn3-c3ccc(F)cc3)C[C@@]21C1CC1` [Example 44, N-(2-Amino-2-oxoethyl)-2-{2-[(4aR,5R)-4a-cyclopropyl-1-(4-fluorophenyl)-5-hydroxy-1,4,4a,5,6,7-hexahydrocyclopenta[f]indazol-5-yl]ethyl}-5-fluoropyridine-3-carboxamide] gave a Ki of 4.6 nM.

In turn, `CC[C@]12Cc3cnn(-c4ccccc4)c3C=C1CC[C@@]2(O)CCc1ccc(F)cc1C(N)=O` [Example 6] registered a Ki of 3.17 nM.

For `O=S(=O)(c1ccccc1CC[C@]1(O)CCC2=Cc3c(cnn3-c3ccc(F)cc3)C[C@@]21C1CC1)C1CC1` [Example 63, (4aR,5R)-4a-Cyclopropyl-5-{2-[2-(cyclopropylsulfonyl)phenyl]ethyl}-1-(4-fluorophenyl)-1,4,4a,5,6,7-hexahydrocyclopenta[f]indazol-5-ol], the Ki is 1.69 nM.

The compound `CC[C@]12Cc3cnn(-c4ccc(F)cc4)c3C=C1CC[C@@]2(O)CCc1nccc(C2CC2)c1C(=O)OC` [Example 41, Methyl 4-cyclopropyl-2-{2-[(4aS,5R)-4a-ethyl-1-(4-fluorophenyl)-5-hydroxy-1,4,4a,5,6,7-hexahydrocyclopenta[f]indazol-5-yl]ethyl}pyridine-3-carboxylate] gave a Ki of 2.63 nM.

Compound `COc1ccnc(CC[C@]2(O)CCC3=Cc4c(cnn4-c4ccc(F)cc4)C[C@@]32C2CC2)c1C(F)C(N)=O` (stereo partly drawn) [Example 66, 2-(2-{2-[(4aR,5R)-4a-Cyclopropyl-1-(4-fluorophenyl)-5-hydroxy-1,4,4a,5,6,7-hexahydrocyclopenta[f]indazol-5-yl]ethyl}-4-methoxypyridin-3-yl)-2-fluoroacetamide] yielded an inhibition constant (Ki) of 1.82 nM.
